Experimental findings from ChEMBL document CHEMBL5537113, “Discovery of 1,2-diaryl-3-oxopyrazolidin-4-carboxamides as a new class of MurA enzyme inhibitors and characterization of their antibacterial activity” (Eur J Med Chem, 2023) are described below.

Assay [1] has as its system Staphylococcus aureus. Description: Antibacterial activity against Staphylococcus aureus Newman assessed as reduction in microbial growth incubated for 16 hrs by serial dilution method. In kind it is functional.
In a further assay the test system is Bacillus subtilis. Description: Antibacterial activity against Bacillus subtilis ATCC 6633 assessed as reduction in microbial growth incubated for 16 hrs by serial dilution method. In kind it is functional.
Assay [2] deals with T1, UDP-N-acetylglucosamine 1-carboxyvinyltransferase (Escherichia coli K-12, UniProt P0A749). Put plainly: Inhibition of Escherichia colo K12 His-tagged MurA expressed in Escherichia coli BL21 cells using UNAG as substrate pre incubated for 10 mins followed by substrate addition and measured after 30 mins by microplate reader analysis.
A further assay relates to Escherichia coli. Description: Antibacterial activity against Escherichia coli harboring tolC deletion mutant assessed as reduction in microbial growth incubated for 16 hrs by serial dilution method. The format is functional.
Assay [3] deals with T1, UDP-N-acetylglucosamine 1-carboxyvinyltransferase. Put plainly: Inhibition of Escherichia coli K12 His-tagged MurA expressed in Escherichia coli BL21 cells using UNAG as substrate pre incubated for 15 mins followed by substrate addition and measured after 15 mins by microplate reader analysis.
The test system of a further assay is Bacteria. Description: Binding affinity to wild type U15-N labelled MurA (unknown origin) expressed in Escherichia coli at 500 uM using UNAG as substrate incubated for 90 to 150 mins by 15N-1H-HSQC NMR analysis. The settings on record: time 90-150 min.
Assay [4] deals with UDP-N-acetylglucosamine 1-carboxyvinyltransferase (Escherichia coli K-12), P0A749 [C115D]. Description: Inhibition of Escherichia coli MurA C115D mutant using UNAG as substrate pre incubated for 15 mins followed by substrate addition and measured after 15 mins by microplate reader analysis. The settings on record: time 30.0 min.
Assay [5] deals with Staphylococcus aureus. Put plainly: Antibacterial activity against Staphylococcus aureus Newman D2C NCTC 10833 assessed as reduction in microbial growth incubated for 16 hrs by serial dilution method. In kind it is functional.

The source made the active and inactive calls.

Broadly, the MIC is the smallest concentration in the dilution series that meets the test's criterion for growth inhibition. Broadly, the IC50 is the concentration needed to halve the response being measured. A lower IC50 goes with greater potency in that assay.

T1 sequence (P0A749 whole entry): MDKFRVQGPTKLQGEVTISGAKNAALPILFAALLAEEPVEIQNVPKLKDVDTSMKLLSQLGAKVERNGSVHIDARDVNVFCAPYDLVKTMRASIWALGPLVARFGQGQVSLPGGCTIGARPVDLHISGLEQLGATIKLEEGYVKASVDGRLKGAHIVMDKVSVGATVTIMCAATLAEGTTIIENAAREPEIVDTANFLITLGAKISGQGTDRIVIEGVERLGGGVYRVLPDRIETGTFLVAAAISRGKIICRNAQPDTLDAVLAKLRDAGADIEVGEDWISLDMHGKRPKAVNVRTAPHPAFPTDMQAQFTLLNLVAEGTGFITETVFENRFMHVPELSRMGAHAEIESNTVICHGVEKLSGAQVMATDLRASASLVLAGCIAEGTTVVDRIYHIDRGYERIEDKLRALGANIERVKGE
UDP-N-acetylglucosamine 1-carboxyvinyltransferase (Escherichia coli K-12), P0A749 [C115D], sequence (P0A749 whole entry C115D): as the sequence (P0A749 whole entry) above, with C115D counted along it

With `O=C1/C(=N\O)CN(c2cccc(Cl)c2)N1c1cccc(Cl)c1`, the minimum inhibitory concentration (MIC) in the assay with Staphylococcus aureus [1] was determined as 20 µg/mL; with Bacillus subtilis it was 10 µg/mL; with Escherichia coli, 4 µg/mL. Moreover, the IC50 in assay [2] worked out at 88.1 µM.

`C[C@@H]1O[C@@H]1P(=O)(O)O` [FOSFOMYCIN] yielded a half-maximal inhibitory concentration (IC50) in assay [3] of 6.7 µM. Besides, the MIC with Escherichia coli stood at 89 µM; in the assay with Staphylococcus aureus [5], 17 µM. Besides, the result in the assay with Bacteria was Active. Also, the inhibition result in assay [4] is “inactive”.
